In patent US20240115557A1, “INHIBITORS OF RNA-GUIDED NUCLEASES AND USES THEREOF” (The Brigham and Women's Hospital, Inc., priority 2022, published 2024):

Molecular target: T1, SaCas9 (Staphylococcus aureus, UniProt J7RUA5)
T1 sequence (J7RUA5 1-1053): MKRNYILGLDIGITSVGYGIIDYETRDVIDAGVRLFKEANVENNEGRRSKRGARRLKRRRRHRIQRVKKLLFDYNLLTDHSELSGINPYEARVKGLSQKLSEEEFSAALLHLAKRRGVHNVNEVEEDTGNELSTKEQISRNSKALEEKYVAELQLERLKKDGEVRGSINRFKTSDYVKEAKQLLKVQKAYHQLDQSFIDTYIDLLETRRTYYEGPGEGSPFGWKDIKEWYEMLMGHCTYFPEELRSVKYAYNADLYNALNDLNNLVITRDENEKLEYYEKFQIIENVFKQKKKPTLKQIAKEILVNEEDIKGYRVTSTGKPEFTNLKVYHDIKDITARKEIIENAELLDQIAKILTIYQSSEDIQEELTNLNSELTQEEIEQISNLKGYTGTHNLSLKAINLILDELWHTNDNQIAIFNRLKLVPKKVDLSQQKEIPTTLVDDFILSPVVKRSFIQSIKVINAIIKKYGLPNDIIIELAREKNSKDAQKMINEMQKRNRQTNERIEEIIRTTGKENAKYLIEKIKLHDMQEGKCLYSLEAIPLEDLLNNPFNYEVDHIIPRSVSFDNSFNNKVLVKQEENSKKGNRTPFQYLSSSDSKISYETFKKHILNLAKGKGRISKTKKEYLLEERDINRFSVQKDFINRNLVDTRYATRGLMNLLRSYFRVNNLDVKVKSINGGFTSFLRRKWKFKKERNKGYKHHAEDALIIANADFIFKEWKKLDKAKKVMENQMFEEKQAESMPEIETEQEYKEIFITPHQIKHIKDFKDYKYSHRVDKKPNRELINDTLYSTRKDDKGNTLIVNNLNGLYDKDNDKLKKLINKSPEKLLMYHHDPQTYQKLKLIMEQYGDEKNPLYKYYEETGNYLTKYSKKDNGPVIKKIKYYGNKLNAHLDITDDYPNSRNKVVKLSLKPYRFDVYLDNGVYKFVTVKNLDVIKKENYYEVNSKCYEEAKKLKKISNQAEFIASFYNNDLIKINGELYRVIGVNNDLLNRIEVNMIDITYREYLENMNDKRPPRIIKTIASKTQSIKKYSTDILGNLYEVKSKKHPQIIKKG
Test: Strand displacement assay, SaCas9 primary screen
Assay type: biochemical
Settings: for Auto Zscore Rep 1 / Auto Zscore Rep 2 / Normalized Zscore Rep 1 / Normalized Zscore Rep 2: SaCas9 primary screen; for Auto Zscore Rep 1 / Normalized Zscore Rep 1: replicate 1; for Auto Zscore Rep 2 / Normalized Zscore Rep 2: replicate 2; for Normalized Zscore Rep 1 / Normalized Zscore Rep 2: weaker potential hits; for 3 sigma Hit: flag 1 = hit at 3 sigma; for 5 sigma Hit: flag 1 = hit at 5 sigma
Method: An overview of the screening for SaCas9 inhibitors is depicted in FIG. 14. A total of 43,168 Compounds were screened from the ICCB Libraries. Libraries screened for the initial compounds include ChemDiv 7 (34,848 cpds), Enamine 1 (5,280 cpds), ChemDiv1 (1,760 cpds), NIH Clinical Collection (450 cpds), Biomol 4—FDA Approved Library (640 cpds). A hit is determined from the Zscore, with 3-5σ being a weak hit, >5σ being a strong hit. The results of the hits include 193 Weak Hits and 249 Strong Hits. The NIH Clinical Collection 1-2014 was screened for 450 of 450 compounds, with 7 hits—1.5%. The Biomol 4—FDA Approved Library was screened for 640 of 640 compounds, with 8 hits—1.2%. […] Enamine 1 was screened for 5,280 of 6,004 compounds, with 44 hits—0.83%. Libraries are commercially available, with reference numbers utilized for compounds identifying the compound structures used. […]
Generalization of CAA to other Cas nucleases. Applicants sought to generalize CAA to other CRISPR-associated nucleases, including from Staphylococcus aureus (SaCas9). Given the similarities between SaCas9 and SpCas9 modes of DNA-substrate binding and protein folding,^26, 27 Applicants hypothesized that SaCas9-induced strand displacement could be similarly measured. Indeed, fluorescence quenching correlated with substrate cleavage in the CAA assay with active SaCas9:gRNA and an ACGGGT PAM sequence, which was validated with gel electrophoresis (FIG. 62F,G and FIG. 69F).
First, Applicants optimized various components and conditions of the strand displacement assay for Cas enzyme activity and generality with different Cas such as SpCas9 (FIG. 62B) or SaCas9 (FIG. 69F) or FnCas12a (FIG. 70A,B). Typically, SpCas9: gRNA (1:1.2 ratio) RNP was pre-formed at 1 μM in Cas9 assay buffer (20 mM Tris-HCl, pH=7.5, 100 mM KCl, 5 mM MgCl2) for 5 min at 4° C. before diluting to 10 nM in Cas9 assay buffer (2× final concentration). 25 μL of the Cas9 2× stock was manually dispensed to a black 384-well plate (Corning 3575) using electronic pipette. Apo SpCas9 (without guide RNA) was used at the same concentration as a control for no activity (mock inhibition). Following this, pre-annealed Alexa-Fluor 647 labeled substrate and quencher were also diluted to 1 nM and 5 nM in Cas9 assay buffer, respectively (2× stock solution). Next, 25 μL of the substrate/quencher solution was added manually to each well of the Cas9-containing 384-well plates using an electronic pipette and was incubated at 37° C. for 2.5 h. Fluorescent signals were read with the microplate reader set to read Alexa-Fluor 647 fluorescence. Assay was performed similarly with SaCas9 and FnCas12a using the respective enzyme, gRNA, substrate, and quencher oligos. Applicants similarly divulged the effect of PAM sequences of dsDNA on its assay specificity using TGG, TGC, AAC PAM containing substrates for SpCas9 (FIG. 62C), and ACGGGT, ACGGTT, TGCCCA PAM substrate for SaCas9 (FIG. 62F) and TTTC, TTGC, AAAG PAM substrates for FnCpf1 (FIG. 63B-C). Applicants also optimized the effective concentration of DS-AF647 and SS-AF647 fluorophores (FIG. 64A), DS-substrate to SpCas9 RNP ratio (FIG. 64B) and substrate to quencher ratio (FIG. 64C) on assay performance. Similarly, Applicants performed a time course experiment to establish the time required for maximum completion of the reaction at various substrate to SpCas9 RNP ratios (FIG. 64D).

Row | Structure (SMILES) | Auto Zscore Rep 1 | Auto Zscore Rep 2 | Normalized Zscore Rep 1 | Normalized Zscore Rep 2 | 3 sigma Hit | 5 sigma Hit
1 | Cc1c(NC(=O)C2=Cc3sc4c(c3CS2)CCCC4)c(=O)n(-c2ccccc2)n1C [Cpd E722-2603] | −0.3069 | 2.714 | 0.2035 | 0.262 | 1 | –
2 | CN(C)S(=O)(=O)Nc1ccc(N2CCN(CC(=O)N3CCCC3)CC2)c(C(=O)O)c1 [Cpd F290-0671] | −0.453 | −0.8512 | 0.1922 | 0.2017 | 1 | –
3 | CCN(Cc1ccccc1)c1ncc(NS(=O)(=O)c2ccc(F)cc2)cc1C(=O)O [Cpd F293-0001] | 0.4484 | 1.331 | 0.18 | 0.1781 | 1 | –
4 | CCN(Cc1ccccc1)c1ncc(NS(=O)(=O)c2c(C)cc(C)cc2C)cc1C(=O)O [Cpd F293-0002] | 0.3791 | −0.09351 | 0.2023 | 0.2291 | 1 | –
5 | CCN(Cc1ccccc1)c1ncc(NS(=O)(=O)c2ccccc2)cc1C(=O)O [Cpd F293-0004] | 1.668 | 0.9183 | 0.2707 | 0.1884 | 1 | 1
6 | CCN(Cc1ccccc1)c1ncc(NS(=O)(=O)CC)cc1C(=O)O [Cpd F293-0006] | 1.342 | 0.9231 | 0.3022 | 0.2957 | 1 | 1
7 | CCN(Cc1ccccc1)c1ncc(NS(=O)(=O)c2cc(C)ccc2C)cc1C(=O)O [Cpd F293-0010] | 2.149 | 2.534 | 0.2507 | 0.2028 | 1 | 1
8 | Cc1cc(C)c(S(=O)(=O)Nc2cnc(N3CCCC3)c(C(=O)O)c2)c(C)c1 [Cpd F293-0426] | 0.8114 | 1.196 | 0.2469 | 0.2531 | 1 | 1
9 | COc1ccc(OC)c(S(=O)(=O)Nc2cnc(N3CCCC3)c(C(=O)O)c2)c1 [Cpd F293-0436] | −1.371 | 1.264 | 0.1977 | 0.2223 | 1 | –
10 | O=C(O)c1cc(NS(=O)(=O)c2ccc3c(c2)CCCC3)cnc1N1CCCC1 [Cpd F293-0441] | 1.399 | 1.863 | 0.3305 | 0.3044 | 1 | 1
11 | Cc1cc(C)c(S(=O)(=O)Nc2cnc(N3CCCC3)c(C(=O)O)c2)cc1C [Cpd F293-0458] | 1.794 | 2.846 | 0.4509 | 0.429 | 1 | 1
12 | CCN(CCN(C)C)c1ncc(NS(=O)(=O)c2cc(C)c(C)cc2C)cc1C(=O)O [Cpd F293-0515] | 2.129 | 2.544 | 0.2953 | 0.3056 | 1 | 1
13 | CCCCN(CC)c1ncc(NS(=O)(=O)CC)cc1C(=O)O [Cpd F293-0526] | 0.7951 | −0.08392 | 0.179 | 0.186 | 1 | –
14 | CCCCN(CC)c1ncc(NS(C)(=O)=O)cc1C(=O)O [Cpd F293-0529] | 0.1547 | −0.2374 | 0.1815 | 0.1895 | 1 | –
15 | CCS(=O)(=O)Nc1cnc(N(CC(C)C)CC(C)C)c(C(=O)O)c1 [Cpd F293-0563] | 1.978 | 2.223 | 0.2792 | 0.3121 | 1 | 1
16 | Cc1cc(C)c(S(=O)(=O)Nc2cnc(N(CC(C)C)CC(C)C)c(C(=O)O)c2)cc1C [Cpd F293-0589] | 1.656 | 0.2997 | 0.335 | 0.2929 | 1 | 1
17 | CCN(CC)c1ncc(NS(=O)(=O)c2cc(C)c(C)cc2C)cc1C(=O)O [Cpd F293-0740] | 0.2771 | −0.1319 | 0.2333 | 0.2114 | 1 | 1
18 | O=C(O)c1cc(NS(=O)(=O)c2cc(F)ccc2F)cnc1N1CCOCC1 [Cpd F293-0775] | −0.9384 | 0.6834 | 0.1939 | 0.1646 | 1 | –
19 | CN(C)c1ncc(NS(=O)(=O)c2cc(F)ccc2F)cc1C(=O)O [Cpd F293-0814] | 2.553 | 2.947 | 0.2358 | 0.2376 | 1 | 1
20 | CN(C)c1ncc(NS(=O)(=O)c2ccc(F)c(F)c2)cc1C(=O)O [Cpd F293-0815] | 1.676 | 1.235 | 0.2087 | 0.159 | 1 | –
21 | CCS(=O)(=O)Nc1cnc(N(C)CCCc2c(C)nn(C)c2C)c(C(=O)O)c1 [Cpd F293-0908] | −0.5672 | 0.4148 | 0.2527 | 0.2772 | 1 | 1
